Source: patent publication US9505749B2, “Quinazolinone compounds and derivatives thereof” (AMGEN INC., priority 2012, dated 2016)
Where two headings read alike, the source gives them in different places.

Experiments:
PARP1 = PARP1 (Homo sapiens (Human), UniProt P09874); assay: PARP1 biochemical assay (Trevigen kit)
Text: PARP1 biochemical assay was purchased as a kit from Trevigen (cat.#4676-096-K) and used per manufacturers recommendations.

PARP2 = PARP2 (Homo sapiens (Human), UniProt Q9UGN5); assay: PARP2 biochemical assay (BPS kit)
Sequence of PARP2 (Q9UGN5 whole entry): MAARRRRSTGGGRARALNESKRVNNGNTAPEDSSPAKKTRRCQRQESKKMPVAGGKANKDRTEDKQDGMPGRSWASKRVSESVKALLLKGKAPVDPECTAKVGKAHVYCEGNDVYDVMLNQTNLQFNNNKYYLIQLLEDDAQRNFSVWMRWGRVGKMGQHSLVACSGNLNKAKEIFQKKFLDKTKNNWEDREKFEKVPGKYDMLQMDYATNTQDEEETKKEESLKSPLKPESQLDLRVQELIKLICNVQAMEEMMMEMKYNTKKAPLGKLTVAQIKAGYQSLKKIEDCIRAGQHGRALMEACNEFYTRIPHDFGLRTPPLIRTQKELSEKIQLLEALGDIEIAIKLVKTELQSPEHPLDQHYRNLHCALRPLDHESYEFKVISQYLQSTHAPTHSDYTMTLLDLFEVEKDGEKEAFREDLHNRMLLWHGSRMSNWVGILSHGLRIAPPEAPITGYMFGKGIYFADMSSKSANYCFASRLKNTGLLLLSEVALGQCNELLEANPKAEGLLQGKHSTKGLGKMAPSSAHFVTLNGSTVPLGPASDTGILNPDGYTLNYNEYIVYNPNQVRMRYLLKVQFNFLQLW

[1] = test system: Axin2 accumulation in SW480 cells; assay: Axin2 384 immunofluorescence assay; format: cell-based; settings: Homo sapiens; SW480 cells, 24 hours; read-out: Axin2 384 IF EC50
[2] = target: 6×HIS-tankyrase1 (1091-1325) (Homo sapiens (Human), UniProt O95271); assay: Tankyrase 1 biochemical assay (AlphaLisa, PARsylation); settings: 400 nM NAD, 60 minutes at RT; read-out: TNKS1 IC50
Sequence of 6×HIS-tankyrase1 (1091-1325) (O95271 1091-1325): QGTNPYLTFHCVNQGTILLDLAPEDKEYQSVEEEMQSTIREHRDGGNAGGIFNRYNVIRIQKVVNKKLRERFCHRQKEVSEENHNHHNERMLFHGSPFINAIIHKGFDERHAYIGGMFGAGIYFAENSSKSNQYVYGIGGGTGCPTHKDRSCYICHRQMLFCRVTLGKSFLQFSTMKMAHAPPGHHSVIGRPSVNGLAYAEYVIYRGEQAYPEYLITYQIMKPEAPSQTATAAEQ

[3] = test system: total β-catenin in SW480 colorectal cells; assay: Total β-catenin MSD 96-well plate assay for SW480 cells; settings: Homo sapiens, SW480, read-out: SW480-Total beta-catenin (TBC) IC50 IP
[4] = target: 6×HIS-tankyrase 2 (946-1162) (Homo sapiens (Human), UniProt Q9H2K2); assay: Tankyrase 2 biochemical assay (AlphaLisa, PARsylation); settings: 250 nM NAD; read-out: TNKS2 IC50
Sequence of 6×HIS-tankyrase 2 (946-1162) (Q9H2K2 946-1162): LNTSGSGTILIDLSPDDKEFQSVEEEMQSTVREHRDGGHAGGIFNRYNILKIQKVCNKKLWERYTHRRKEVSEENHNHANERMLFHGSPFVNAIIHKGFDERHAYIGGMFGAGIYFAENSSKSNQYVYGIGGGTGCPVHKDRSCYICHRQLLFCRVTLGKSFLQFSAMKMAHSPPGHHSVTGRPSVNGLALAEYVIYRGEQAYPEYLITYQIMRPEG

[5] = test system: 8×TCF promoter-driven Firefly luciferase (Wnt reporter) in DLD-1 colorectal cells; assay: DLD-1-STF assay, constitutively activated Wnt pathway reporter; format: cell-based; settings: Homo sapiens
Method: DLD-1 colorectal cells engineered with an 8×TCF promoter-driven Firefly (FF) luciferase gene (Wnt reporter) along with an EF1a promoter-driven Renilla (RN) luciferase gene (control reporter) were used to measure the potency of tankyrase compounds in the context of the constitutively activated Wnt pathway due to mutated APC in colorectal cancer cells. The engineered DLD-1 cells were plated (45 μL) at a density of 10,000 cells/well in black, clear-bottom, 96-well View plates (PerkinElmer) in normal growth medium (RPMI with 10% FBS with no antibiotics). Tankyrase inhibitors (5 μL) were transferred to cells from a three-fold serially diluted compound plate. A 10-point dilution series was tested starting at a concentration (10 μM final concentration in assay). Column 6 contained only DMSO and served as the “HI” control. A potent Tankyrase inhibitor was used at a final concentration of 10 uM in column 12 which served as the “LO” control. […] The Dual-Glo Reagents (Promega) were added as directed by manufacturer to assay the FF and RN luciferase activity. Luciferase activity was measures using the EnVision multilabel plate reader (PerkinElmer).

[6] = DLD-1, read-out: DLD1-STF-FF/RL*100 IC50

Sequence of PARP1 (P09874 whole entry): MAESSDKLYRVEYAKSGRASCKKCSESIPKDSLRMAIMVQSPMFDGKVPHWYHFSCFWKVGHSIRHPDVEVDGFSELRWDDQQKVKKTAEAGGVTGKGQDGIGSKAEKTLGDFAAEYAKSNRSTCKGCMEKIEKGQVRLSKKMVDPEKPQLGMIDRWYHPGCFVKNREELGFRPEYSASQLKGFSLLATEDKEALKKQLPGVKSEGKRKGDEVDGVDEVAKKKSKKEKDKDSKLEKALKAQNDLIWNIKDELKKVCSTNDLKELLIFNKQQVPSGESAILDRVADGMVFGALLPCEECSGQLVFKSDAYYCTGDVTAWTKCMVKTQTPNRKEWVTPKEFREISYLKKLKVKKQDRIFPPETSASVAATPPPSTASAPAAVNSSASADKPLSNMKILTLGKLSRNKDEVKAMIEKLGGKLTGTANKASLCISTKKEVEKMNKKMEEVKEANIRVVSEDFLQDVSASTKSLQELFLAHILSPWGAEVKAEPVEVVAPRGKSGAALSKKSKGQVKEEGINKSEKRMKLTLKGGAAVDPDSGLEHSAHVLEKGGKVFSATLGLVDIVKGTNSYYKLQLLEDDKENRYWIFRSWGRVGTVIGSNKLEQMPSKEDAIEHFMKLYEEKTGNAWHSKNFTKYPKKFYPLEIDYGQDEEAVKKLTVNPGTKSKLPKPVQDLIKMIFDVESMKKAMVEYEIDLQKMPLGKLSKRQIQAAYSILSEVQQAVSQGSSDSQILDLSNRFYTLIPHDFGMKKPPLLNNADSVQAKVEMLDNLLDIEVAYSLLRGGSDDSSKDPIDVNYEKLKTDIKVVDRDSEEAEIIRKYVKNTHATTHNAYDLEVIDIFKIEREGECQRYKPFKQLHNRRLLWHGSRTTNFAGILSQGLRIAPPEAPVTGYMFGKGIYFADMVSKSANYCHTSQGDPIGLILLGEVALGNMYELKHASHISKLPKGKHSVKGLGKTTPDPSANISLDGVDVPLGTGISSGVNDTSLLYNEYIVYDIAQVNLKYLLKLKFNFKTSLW

| Compound | IC50 (PARP1) | IC50 (PARP2) | EC50 [1] | IC50 [2] | IC50 [3] | IC50 [4] | IC50 ([5]; DLD-1 cells, 40 to 48 hours, read-out: DLD1-STF-FF/RL*100 IC50) | IC50 [5, 6] |
| --- | --- | --- | --- | --- | --- | --- | --- | --- |
| N#Cc1ccc(O[C@H]2CC[C@H](NC(=O)CCCc3nc4ccccc4c(=O)[nH]3)CC2)cc1Cl [Example 64, N-(trans-4-(3-chloro-4-cyanophenoxy)cyclohexyl)-4-(4-oxo-3,4-dihydro-2-quinazolinyl)butanamide] | 257 nM | 288 nM | 60.9 nM | 1.05 nM | 26.6 nM | 0.52 nM | 1.26 nM | – |
| O=C(CCCSc1nc2ccccc2c(=O)[nH]1)N[C@H]1CC[C@H](c2nnc(-c3ccccc3)o2)CC1 [Example 110, 4-((4-oxo-3,4-dihydroquinazolin-2-yl)thio)-N-((1r,4r)-4-(5-phenyl-1,3,4-oxadiazol-2-yl)cyclohexyl)butanamide] | 376 nM | 1440 nM | 132 nM | – | 104 nM | – | – | 1.78 nM |
| O=C(CCSc1nc2c(c(=O)[nH]1)CCCC2)N[C@H]1CC[C@H](c2nnc(-c3ccccc3)o2)CC1 [Example 115, 3-((4-oxo-3,4,5,6,7,8-hexahydroquinazolin-2-yl)thio)-N-(trans-4-(5-phenyl-1,3,4-oxadiazol-2-yl)cyclohexyl)propanamide] | 3860 nM | 1120 nM | 14.4 nM | – | 11 nM | – | – | 1.3 nM |
